We go through 20 compounds from US10479780B2, “Aminopyrazole derivatives” (Chugai Seiyaku Kabushiki Kaisha, priority 2015, dated 2019).

Common to all, as to assay type: biochemical
Assay [1] has as its target T1, human Yes1 enzyme (Homo sapiens, UniProt P07947).
T1 construct: made in house
The experiment in a line: Yes1 enzyme inhibitory activity (time-resolved fluorometry, biotinylated peptide phosphorylation). As to conditions: read-out: YES_IC50. The essentials: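 Inhibition was expressed against a compound-free control to give IC50, using TR-FRET read-out (Eu-cryptate anti-pTyr antibody, streptavidin-XL665).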

The target in assay [2] is T2, human Lck enzyme (Homo sapiens, UniProt P06239).
T2 construct: purchased Carna Biosciences, Inc. 08-170
T2 sequence (P06239 whole entry): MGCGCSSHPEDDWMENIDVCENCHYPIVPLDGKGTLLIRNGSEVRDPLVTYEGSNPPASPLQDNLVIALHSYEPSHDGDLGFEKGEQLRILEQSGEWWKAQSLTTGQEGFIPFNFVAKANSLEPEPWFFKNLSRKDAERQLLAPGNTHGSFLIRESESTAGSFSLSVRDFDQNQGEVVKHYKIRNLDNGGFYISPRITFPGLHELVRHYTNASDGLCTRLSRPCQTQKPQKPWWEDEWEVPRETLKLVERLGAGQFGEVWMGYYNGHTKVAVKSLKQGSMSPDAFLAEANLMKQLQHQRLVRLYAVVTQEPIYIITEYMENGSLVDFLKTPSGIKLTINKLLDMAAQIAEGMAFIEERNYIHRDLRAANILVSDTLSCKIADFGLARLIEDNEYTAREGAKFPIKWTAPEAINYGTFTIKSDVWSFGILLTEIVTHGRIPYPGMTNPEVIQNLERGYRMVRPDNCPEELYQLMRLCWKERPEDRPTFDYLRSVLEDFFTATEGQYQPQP
Kind of assay: Lck enzyme inhibitory activity (time-resolved fluorometry, biotinylated peptide phosphorylation). Particulars: read-out: LCK_IC50. The method in brief: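 Readout pairs a europium cryptate-labelled anti-phosphotyrosine antibody with XL665-streptavidin, measured by time-resolved fluorescence. IC50 derived from percent inhibition against untreated controls.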

In assay [3] the target is T3, human Src enzyme (Homo sapiens, UniProt P12931).
T3 construct: purchased Carna Biosciences, Inc. 08-173
T3 sequence (P12931 whole entry): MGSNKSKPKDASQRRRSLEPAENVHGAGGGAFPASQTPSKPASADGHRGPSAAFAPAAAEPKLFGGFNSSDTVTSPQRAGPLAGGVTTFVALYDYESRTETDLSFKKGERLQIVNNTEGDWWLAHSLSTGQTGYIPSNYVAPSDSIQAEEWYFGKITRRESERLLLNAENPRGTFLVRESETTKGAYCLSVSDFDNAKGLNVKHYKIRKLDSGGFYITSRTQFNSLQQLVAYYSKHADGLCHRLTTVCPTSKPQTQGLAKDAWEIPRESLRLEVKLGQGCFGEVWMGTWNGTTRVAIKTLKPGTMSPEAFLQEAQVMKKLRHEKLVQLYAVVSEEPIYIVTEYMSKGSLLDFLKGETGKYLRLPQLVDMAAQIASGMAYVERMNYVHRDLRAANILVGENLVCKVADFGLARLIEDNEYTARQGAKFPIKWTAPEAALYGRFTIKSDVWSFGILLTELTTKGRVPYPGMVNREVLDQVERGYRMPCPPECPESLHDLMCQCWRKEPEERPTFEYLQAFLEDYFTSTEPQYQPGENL
The experiment in a line: Src enzyme inhibitory activity (time-resolved fluorometry, biotinylated peptide phosphorylation). As to conditions: read-out: SRC_IC50. The method in brief: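 Compounds were tested for blocking tyrosine phosphorylation of a biotinylated peptide substrate by recombinant human Src. Phosphorylated product was quantified by time-resolved fluorometry using europium cryptate and XL665 conjugates, and IC50 was calculated against the compound-free control.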

Where [4] appears, read: biotinylated peptide phosphorylation.

The structures appear in SMILES notation. Read-outs that look alike come from different tables or passages of the source.

T1 sequence (P07947 whole entry): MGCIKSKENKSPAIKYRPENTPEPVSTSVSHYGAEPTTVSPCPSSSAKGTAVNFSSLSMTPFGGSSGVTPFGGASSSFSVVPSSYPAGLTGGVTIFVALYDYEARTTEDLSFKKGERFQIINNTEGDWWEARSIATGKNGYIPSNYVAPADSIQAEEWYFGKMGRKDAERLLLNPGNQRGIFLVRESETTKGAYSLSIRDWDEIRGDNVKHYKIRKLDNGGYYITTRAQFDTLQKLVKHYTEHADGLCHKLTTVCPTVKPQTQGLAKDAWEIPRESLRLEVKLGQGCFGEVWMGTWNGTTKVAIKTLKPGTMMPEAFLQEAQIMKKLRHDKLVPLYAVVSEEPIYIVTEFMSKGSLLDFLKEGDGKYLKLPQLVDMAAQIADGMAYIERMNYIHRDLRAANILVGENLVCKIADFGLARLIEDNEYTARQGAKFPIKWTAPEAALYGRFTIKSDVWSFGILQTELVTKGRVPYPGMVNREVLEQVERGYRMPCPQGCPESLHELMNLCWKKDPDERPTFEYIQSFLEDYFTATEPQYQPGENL

On to `Cc1cc2cc(C(=O)c3cnn(-c4c(C)cc(Oc5c(F)cccc5F)cc4F)c3N)[nH]c2cc1NS(C)(=O)=O` [Example 5-1-140, N-[2-[5-amino-1-[4-(2,6-difluorophenoxy)-2-fluoro-6-methylphenyl]pyrazole-4-carbonyl]-5-methyl-1H-indol-6-yl]methanesulfonamide], for which the IC50 in assay [1] was 2.8 nM; in assay [2], 24 nM; in assay [3] it was 48 nM.
For `CS(=O)(=O)Nc1cc2[nH]c(C(=O)c3cnn(-c4ccc(Oc5ccccc5F)cc4Cl)c3N)cc2cc1F` [Example 5-1-018, N-[2-[5-amino-1-[2-chloro-4-(2-fluorophenoxy)phenyl]pyrazole-4-carbonyl]-5-fluoro-1H-indol-6-yl]methanesulfonamide], the IC50 in assay [1] turned out to be 2.2 nM; in assay [2] it was 33 nM; in assay [3] it was 110 nM.
In the case of `Cc1cc2cc(C(=O)c3cnn(-c4ccc(Oc5ccccc5F)cc4C)c3N)[nH]c2cc1NS(=O)(=O)c1cccc(F)n1` [Example 5-1-515, N-[2-[5-amino-1-[4-(2-fluorophenoxy)-2-methylphenyl]pyrazole-4-carbonyl]-5-methyl-1H-indol-6-yl]-6-fluoropyridine-2-sulfonamide], the IC50 in assay [1] (setting [4]) was 2.4 nM; in assay [2] (setting [4]), 59 nM; in assay [3] (setting [4]) it was 280 nM.
As for `Cc1cc2cc(C(=O)c3cnn(-c4cnc(Oc5c(F)cccc5F)cc4C)c3N)[nH]c2cc1N1C(=O)NC(C)(C)C1=O` [Example 5-1-286, 3-[2-[5-amino-1-[6-(2,6-difluorophenoxy)-4-methylpyridin-3-yl]pyrazole-4-carbonyl]-5-methyl-1H-indol-6-yl]-5,5-dimethylimidazolidine-2,4-dione], the IC50 in assay [1] worked out at 2.3 nM; in assay [2], 5.3 nM; in assay [3] it was 30 nM.
Consider `Cc1cc2cc(C(=O)c3cnn(-c4cnc(Oc5c(F)cccc5F)cc4C)c3N)[nH]c2cc1N1C(=O)NC2(CCCCC2)C1=O` [Example 5-1-316, 3-[2-[5-amino-1-[6-(2,6-difluorophenoxy)-4-methylpyridin-3-yl]pyrazole-4-carbonyl]-5-methyl-1H-indol-6-yl]-1,3-diazaspiro[4.5] decane-2,4-dione], for which the IC50 in assay [1] was found to be 6.2 nM; in assay [2], 29 nM; in assay [3], 170 nM.
Regarding `Cc1cc2cc(C(=O)c3cnn(-c4ccc(Oc5ccccc5F)cc4C)c3N)[nH]c2cc1NS(=O)(=O)c1cccc(F)c1` [Example 5-1-550, N-[2-[5-amino-1-[4-(2-fluorophenoxy)-2-methylphenyl]pyrazole-4-carbonyl]-5-methyl-1H-indol-6-yl]-3-fluorobenzenesulfonamide], the IC50 in assay [1] (setting [4]) is 5.1 nM; in assay [2] (setting [4]), 72 nM; in assay [3] (setting [4]), 490 nM.
`Cc1cc(Oc2ccccc2F)ccc1-n1ncc(C(=O)c2cc3cc(OC(F)F)c(N4CCC(N5CCOCC5)CC4)cc3[nH]2)c1N` [Example 4-25-032, [5-amino-1-[4-(2-fluorophenoxy)-2-methylphenyl]pyrazol-4-yl]-[5-(difluoromethoxy)-6-(4-morpholin-4-ylpiperidin-1-yl)-1H-indol-2-yl]methanone]: the IC50 in assay [1] (setting [4]) is 0.83 nM; in assay [2] (setting [4]), 11 nM; in assay [3] (setting [4]), 48 nM.
For `Nc1c(C(=O)c2cc3cc(F)c(NS(=O)(=O)CCCF)cc3[nH]2)cnn1-c1c(F)cc(Oc2ccccc2F)cc1F` [Example 5-1-027, N-[2-[5-amino-1-[2,6-difluoro-4-(2-fluorophenoxy)phenyl]pyrazole-4-carbonyl]-5-fluoro-1H-indol-6-yl]-3-fluoropropane-1-sulfonamide], the IC50 in assay [1] was determined as 0.84 nM; in assay [2], 20 nM; in assay [3], 65 nM.
`Cc1cc(Oc2ccccc2F)ncc1-n1ncc(C(=O)c2cc3cc(F)c(NS(=O)(=O)c4cccc(C#N)n4)cc3[nH]2)c1N` [Example 5-1-539, N-[2-[5-amino-1-[6-(2-fluorophenoxy)-4-methylpyridin-3-yl]pyrazole-4-carbonyl]-5-fluoro-1H-indol-6-yl]-6-cyanopyridine-2-sulfonamide]: the values for the IC50 in assay [1] (setting [4]), in assay [2] (setting [4]) and in assay [3] (setting [4]) were 11 nM, 220 nM and 800 nM, respectively.
With `Cc1cc(Oc2cccc(F)c2F)ccc1-n1ncc(C(=O)c2cc3cc(F)c(C4CCN(C(C)C)CC4)cc3[nH]2)c1N` [Example 4-2-011, [5-amino-1-[4-(2,3-difluorophenoxy)-2-methylphenyl]pyrazol-4-yl][5-fluoro-6-(1-propan-2-ylpiperidin-4-yl)-1H-indol-2-yl]methanone], the IC50 in assay [1] (setting [4]) was found to be 2.2 nM; in assay [2] (setting [4]), 2.7 nM; in assay [3] (setting [4]) it was 11 nM.
`COc1cc2cc(C(=O)c3cnn(-c4cnc(Oc5ccccc5F)cc4C)c3N)[nH]c2cc1Br` [Example 5-1-145, [5-amino-1-[6-(2-fluorophenoxy)-4-methylpyridin-3-yl]pyrazol-4-yl]-(6-bromo-5-methoxy-1H-indol-2-yl)methanone]: the IC50 in assay [1] amounted to 1.6 nM; in assay [2] it was 8.2 nM; in assay [3], 16 nM.
For `Cc1cc(Oc2c(F)cccc2F)ncc1-n1ncc(C(=O)c2cc3cc(F)c(NC4CN(S(C)(=O)=O)C4)cc3[nH]2)c1N` [Example 5-1-102, [5-amino-1-[6-(2,6-difluorophenoxy)-4-methylpyridin-3-yl]pyrazol-4-yl]-[5-fluoro-6-[(1-methylsulfonylazetidin-3-yl)amino]-1H-indol-2-yl]methanone] the same measures were 0.77 nM, 1.3 nM and 5 nM.
For `Cc1cc2cc(C(=O)c3cnn(-c4cnc(Oc5ccccc5F)cc4C)c3N)[nH]c2cc1N1CCC(N2CCOCC2)CC1` [Example 5-1-078, [5-amino-1-[6-(2-fluorophenoxy)-4-methylpyridin-3-yl]pyrazol-4-yl]-[5-methyl-6-(4-morpholin-4-ylpiperidin-1-yl)-1H-indol-2-yl]methanone], the IC50 in assay [1] is 0.28 nM; in assay [2], 2.4 nM; in assay [3] it was 10 nM.
Turning to `Cc1cccc(S(=O)(=O)Nc2cc3[nH]c(C(=O)c4cnn(-c5cnc(Oc6c(F)cccc6F)cc5C)c4N)cc3cc2OCC(F)F)n1` [Example 5-1-573, N-[2-[5-amino-1-[6-(2,6-difluorophenoxy)-4-methylpyridin-3-yl]pyrazole-4-carbonyl]-5-(2,2-difluoroethoxy)-1H-indol-6-yl]-6-methylpyridine-2-sulfonamide], the IC50 in assay [1] (setting [4]) came out at 2.9 nM; in assay [2] (setting [4]) it was 14 nM; in assay [3] (setting [4]), 440 nM.
Consider `Cc1cc(Oc2c(F)cccc2F)ncc1-n1ncc(C(=O)c2cc3cc(OC4CCN(CCO)CC4)c(Br)cc3[nH]2)c1N` [Example 5-1-226, [5-amino-1-[6-(2,6-difluorophenoxy)-4-methylpyridin-3-yl]pyrazol-4-yl]-[6-bromo-5-[1-(2-hydroxyethyl)piperidin-4-yl]oxy-1H-indol-2-yl]methanone], for which the IC50 in assay [1] was found to be 0.34 nM; in assay [2], 2 nM; in assay [3], 3.3 nM.
With `Cc1cc(-n2ncc(C(=O)c3cc4cc(OC5CCN(C6CS(=O)(=O)C6)CC5)c(-c5ccccc5F)cc4[nH]3)c2N)ccc1Oc1ccccc1F` [Example 5-1-309, [5-amino-1-[4-(2-fluorophenoxy)-3-methylphenyl]pyrazol-4-yl]-[5-[1-(1,1-dioxothietan-3-yl)piperidin-4-yl]oxy-6-(2-fluorophenyl)-1H-indol-2-yl]methanone], the IC50 in assay [1] turned out to be 12 nM; in assay [2], 410 nM; in assay [3], 3600 nM.
Regarding `Cc1cc(Oc2cccc(Cl)c2)ncc1-n1ncc(C(=O)c2cc3cc(F)c(NS(C)(=O)=O)cc3[nH]2)c1N` [Example 4-2-037, N-[2-[5-amino-1-[6-(3-chlorophenoxy)-4-methylpyridin-3-yl]pyrazole-4-carbonyl]-5-fluoro-1H-indol-6-yl]methanesulfonamide], the IC50 in assay [1] (setting [4]) worked out at 1.1 nM; in assay [2] (setting [4]), 30 nM; in assay [3] (setting [4]) it was 78 nM.
Turning to `Cc1cc2cc(C(=O)c3cnn(-c4cnc(Oc5ccccc5)cc4C)c3N)[nH]c2cc1NS(C)(=O)=O` [Example 5-1-109, N-[2-[5-amino-1-(4-methyl-6-phenoxypyridin-3-yl)pyrazole-4-carbonyl]-5-methyl-1H-indol-6-yl]methanesulfonamide], the IC50 in assay [1] worked out at 0.7 nM; in assay [2] it was 1.4 nM; in assay [3] it was 37 nM.
Turning to `Cc1cc(Oc2c(F)cccc2F)ncc1-n1ncc(C(=O)c2cc3cc(OCC(F)F)c(NS(=O)(=O)C4CCCC4)cc3[nH]2)c1N` [Example 5-1-318, N-[2-[5-amino-1-[6-(2,6-difluorophenoxy)-4-methylpyridin-3-yl]pyrazole-4-carbonyl]-5-(2,2-difluoroethoxy)-1H-indol-6-yl] cyclopentanesulfonamide], the IC50 in assay [1] is 10 nM; in assay [2], 120 nM; in assay [3], 350 nM.
The like results for `CC(C)N1CCC(c2cc3cc(C(=O)c4cnn(-c5ccc(Oc6cccc(F)c6)cc5F)c4N)[nH]c3cc2F)CC1` [Example 5-1-002, [5-amino-1-[2-fluoro-4-(3-fluorophenoxy)phenyl]pyrazol-4-yl]-[6-fluoro-5-(1-propan-2-ylpiperidin-4-yl)-1H-indol-2-yl]methanone] were, in that order, 0.87 nM, 2.2 nM and 6.1 nM.
